Values of other authors in patent US20110135569A1, “METHOD FOR THERAPEUTIC ADMINISTRATION OF RADIONUCLEOSIDES” (Peak Biosciences Inc., priority 2007, published 2011).

What was measured:
replicating cancer cells = conditions: low picomolar range, e.g. value
[1] = human subjects; locally injected or intra-arterially infused

**Q.** Which “concentration able to destroy the chromosomes of replicating cancer cells” value (replicating cancer cells) does the source give for `O=c1[nH]c(=O)n([C@H]2C[C@H](O)[C@@H](CO)O2)cc1[125I]` [^125IUDR, 5-[^125I]-iodouridine 2′-deoxyribonucleoside] here?
**A.** 5 picomoles/liter

**Q.** What about the plasma half-life [1] of the same compound?
**A.** less than 5 minutes
